Laboratory results published in PubChem BioAssay AID328 (DTP/NCI, 2004).
Values joined by “and” are separate entries in the source; they are usually repeats but may differ in a detail not shown here. Equal entries are not always repeated. Toxic doses and inconclusive results are not listed.

System: BDF1 mice, P388 leukemia ip, median survival T/C
Experiment: NCI In Vivo Anticancer Drug Screen. Data for tumor model P388 Leukemia (intraperitoneal) in B6D2F1 (BDF1) mice
Details: endpoint: median survival time, higher = longer survival
Outline: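 T/C = treated-group survival ÷ vehicle-control survival; tumour transplanted into mice before dosing.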

[1] = dose: 12.5 mg/kg/injection, schedule: Q01DX009 (ip), vehicle: saline
[2] = dose: 25.0 mg/kg/injection, schedule: Q01DX009 (ip), vehicle: saline
[3] = dose: 50.0 mg/kg/injection, schedule: Q01DX009 (ip), vehicle: saline
[4] = dose: 100.0 mg/kg/injection, schedule: Q01DX009 (ip), vehicle: saline
[5] = dose: 12.5 mg/kg/injection, schedule: Q01DX009 (ip), vehicle: Klucel (hydroxypropylcellulose) (HPC)
[6] = dose: 25.0 mg/kg/injection, schedule: Q01DX009 (ip), vehicle: Klucel (hydroxypropylcellulose) (HPC)
[7] = dose: 25.0 mg/kg/injection, schedule: Q04DX003 (ip), vehicle: saline with Tween-80
[8] = dose: 50.0 mg/kg/injection, schedule: Q04DX003 (ip), vehicle: saline with Tween-80
[9] = dose: 100.0 mg/kg/injection, schedule: Q04DX003 (ip), vehicle: saline with Tween-80
[10] = dose: 400.0 mg/kg/injection, schedule: Q01DX009 (ip), vehicle: saline
[11] = dose: 50.0 mg/kg/injection, schedule: Q01DX009 (ip), vehicle: saline with Tween-80
[12] = dose: 100.0 mg/kg/injection, schedule: Q01DX009 (ip), vehicle: saline with Tween-80
[13] = dose: 200.0 mg/kg/injection, schedule: Q01DX009 (ip), vehicle: saline with Tween-80
[14] = dose: 25.0 mg/kg/injection, schedule: Q01DX009 (ip), vehicle: saline with Tween-80
[15] = dose: 50.0 mg/kg/injection, schedule: Q01DX009 (ip), vehicle: Klucel (hydroxypropylcellulose) (HPC)
[16] = dose: 100.0 mg/kg/injection, schedule: Q01DX009 (ip), vehicle: Klucel (hydroxypropylcellulose) (HPC)

NNc1cc(N)[nH]n1
T/C [1]: 106 % of control | T/C [2]: 100 % of control | T/C [3]: 100 % of control | T/C [4]: 93 % of control

O=C(C=P(c1ccccc1)(c1ccccc1)c1ccccc1)CCl
T/C (dose: 6.25 mg/kg/injection, schedule: Q01DX009 (ip), vehicle: Klucel (hydroxypropylcellulose) (HPC)): 91 % of control | T/C (dose: 6.25 mg/kg/injection, schedule: Q04DX003 (ip), vehicle: Klucel (hydroxypropylcellulose) (HPC)): 100 % of control | T/C [5]: 91 % of control | T/C (dose: 12.5 mg/kg/injection, schedule: Q04DX003 (ip), vehicle: Klucel (hydroxypropylcellulose) (HPC)): 100 % of control | T/C [6]: 100 % of control | T/C (dose: 25.0 mg/kg/injection, schedule: Q04DX003 (ip), vehicle: Klucel (hydroxypropylcellulose) (HPC)): 100 % of control

FC(F)(F)C(Cl)(Cc1ccc2ccccc2n1)C(F)(F)F
T/C (dose: 100.0 mg/kg/injection, schedule: Q01DX001 (ip), vehicle: saline with Tween-80): 100 % of control | T/C (dose: 200.0 mg/kg/injection, schedule: Q01DX001 (ip), vehicle: saline with Tween-80): 100 % of control | T/C (dose: 400.0 mg/kg/injection, schedule: Q01DX001 (ip), vehicle: saline with Tween-80): 104 % of control

CCCCCCCCCCCCCCCC(=O)OCC1OC(CO)(OC2OC(CO)C(O)C(O)C2O)C(O)C1O (stereo not given)
T/C (dose: 100.0 mg/kg/injection, schedule: Q04DX003 (ip), vehicle: Klucel (hydroxypropylcellulose) (HPC)): 104 % of control | T/C (dose: 200.0 mg/kg/injection, schedule: Q04DX003 (ip), vehicle: Klucel (hydroxypropylcellulose) (HPC)): 112 % of control

c1ccc([P+](CCN2Cc3ccccc3C2)(c2ccccc2)c2ccccc2)cc1
T/C (dose: 3.13 mg/kg/injection, schedule: Q01DX009 (ip), vehicle: saline): 99 % of control | T/C (dose: 6.25 mg/kg/injection, schedule: Q01DX009 (ip), vehicle: saline): 114 % of control | T/C [1]: 105 % of control

COC(=O)C1CCN(Cc2c[nH]c3ccccc23)CC1
T/C (dose: 12.5 mg/kg/injection, schedule: Q04DX003 (ip), vehicle: saline with Tween-80): 96 % of control | T/C [7]: 96 % of control | T/C [8]: 111 % of control | T/C [9]: 102 % of control

CN(C)N=Nc1cn(C2OC(CO)C(O)C2O)c(=O)[nH]c1=O (stereo not given)
T/C (dose: 9.0 mg/kg/injection, schedule: Q01DX009 (ip), vehicle: saline): 115 % of control | T/C (dose: 18.0 mg/kg/injection, schedule: Q01DX009 (ip), vehicle: saline): 110 % of control | T/C [2]: 100 % of control | T/C (dose: 37.5 mg/kg/injection, schedule: Q01DX009 (ip), vehicle: saline): 300 % of control and 120 % of control | T/C [3]: 120 % of control | T/C (dose: 75.0 mg/kg/injection, schedule: Q01DX009 (ip), vehicle: saline): 300 % of control and 150 % of control | T/C (dose: 150.0 mg/kg/injection, schedule: Q01DX009 (ip), vehicle: saline): 300 % of control and 180 % of control | T/C [10]: 150 % of control

O=[N+]([O-])c1cc(C(F)(F)F)cc([N+](=O)[O-])c1N1CCCC(n2cccc2)C1 (stereo not given)
T/C [11]: 107 % of control | T/C [12]: 109 % of control | T/C [13]: 118 % of control

O=[N+]([O-])c1ccc(N2CCN(c3ccc(Cl)cc3)CC2)c2c1no[n+]2[O-]
T/C (dose: 15.0 mg/kg/injection, schedule: Q01DX009 (ip), vehicle: saline with Tween-80): 100 % of control | T/C (dose: 30.0 mg/kg/injection, schedule: Q01DX009 (ip), vehicle: saline with Tween-80): 99 % of control | T/C (dose: 60.0 mg/kg/injection, schedule: Q01DX009 (ip), vehicle: saline with Tween-80): 99 % of control

CC(C)(O)/C=C/C(=O)C(C)(O)C1C(O)CC2(C)C3CC=C4C(CC(O)C(O)C4(C)C)C3(C)C(=O)CC12C (stereo not given)
T/C (dose: 0.25 mg/kg/injection, schedule: Q01DX010 (ip), vehicle: carboxymethylcellulose (CMC)): 100 % of control | T/C (dose: 0.5 mg/kg/injection, schedule: Q01DX010 (ip), vehicle: carboxymethylcellulose (CMC)): 105 % of control | T/C (dose: 1.0 mg/kg/injection, schedule: Q01DX010 (ip), vehicle: carboxymethylcellulose (CMC)): 95 % of control | T/C (dose: 2.0 mg/kg/injection, schedule: Q01DX010 (ip), vehicle: carboxymethylcellulose (CMC)): 110 % of control

COCCn1c2nc(=O)n(-c3ccccc3)c(=O)c-2nc2c1CCCC2
T/C [14]: 103 % of control | T/C [11]: 97 % of control and 112 % of control | T/C [12]: 113 % of control and 124 % of control | T/C [13]: 110 % of control

O=C(N/N=C\c1c(Cl)cccc1Cl)c1ccccc1
T/C (dose: 50.0 mg/kg/injection, schedule: Q04DX003 (ip), vehicle: acetone): 113 % of control | T/C (dose: 100.0 mg/kg/injection, schedule: Q04DX003 (ip), vehicle: acetone): 95 % of control | T/C (dose: 200.0 mg/kg/injection, schedule: Q04DX003 (ip), vehicle: acetone): 90 % of control

Cc1c[n+]([O-])ccc1Br
T/C (dose: 6.25 mg/kg/injection, schedule: Q04DX003 (ip), vehicle: water): 100 % of control | T/C (dose: 12.5 mg/kg/injection, schedule: Q04DX003 (ip), vehicle: water): 100 % of control | T/C (dose: 25.0 mg/kg/injection, schedule: Q04DX003 (ip), vehicle: water): 112 % of control | T/C (dose: 50.0 mg/kg/injection, schedule: Q04DX003 (ip), vehicle: water): 99 % of control | T/C (dose: 100.0 mg/kg/injection, schedule: Q04DX003 (ip), vehicle: water): 100 % of control

O=C(NNC1CCCCC1)c1ccccc1
T/C [14]: 95 % of control

O=[N+]([O-])c1cnc2ccnn2c1
T/C [5]: 100 % of control | T/C [6]: 100 % of control | T/C [15]: 100 % of control | T/C [16]: 95 % of control

Cc1nc2ccc(O)cc2cc1CO
T/C [2]: 95 % of control | T/C [3]: 100 % of control | T/C [4]: 99 % of control | T/C (dose: 200.0 mg/kg/injection, schedule: Q01DX009 (ip), vehicle: saline): 109 % of control | T/C [10]: 111 % of control

CC(=O)[C@H]1CC[C@H]2[C@@H]3CCC4=CC(=O)[C@H](C)C[C@]4(C)[C@@]3(F)[C@@H](O)C[C@]12C
T/C [14]: 100 % of control | T/C [11]: 100 % of control | T/C [12]: 95 % of control and 104 % of control | T/C [9]: 100 % of control | T/C (dose: 200.0 mg/kg/injection, schedule: Q04DX003 (ip), vehicle: saline with Tween-80): 100 % of control | T/C (dose: 400.0 mg/kg/injection, schedule: Q04DX003 (ip), vehicle: saline with Tween-80): 90 % of control

C/C=C1/CC(C)C(C)(O)C(=O)OCC2CCN3CCC(OC1=O)C23 (stereo not given)
T/C (dose: 25.0 mg/kg/injection, schedule: Q01DX010 (ip), vehicle: saline): 111 % of control | T/C (dose: 50.0 mg/kg/injection, schedule: Q01DX010 (ip), vehicle: saline): 116 % of control | T/C (dose: 100.0 mg/kg/injection, schedule: Q01DX010 (ip), vehicle: saline): 116 % of control

N#CCCN1c2ccccc2Sc2ccccc21
T/C [15]: 110 % of control | T/C [16]: 105 % of control | T/C (dose: 200.0 mg/kg/injection, schedule: Q01DX009 (ip), vehicle: Klucel (hydroxypropylcellulose) (HPC)): 110 % of control

CCCNC1(C(N)=O)CCN(Cc2ccccc2)CC1
T/C [14]: 107 % of control | T/C [7]: 104 % of control | T/C [11]: 111 % of control | T/C [8]: 86 % of control | T/C [12]: 96 % of control | T/C [9]: 95 % of control

CCOC(=O)C(=O)CC(=O)/C=C/c1ccccc1
T/C [12]: 96 % of control | T/C [13]: 107 % of control

Cc1cc(Cl)ccc1NC(=O)Oc1nc2ccccc2o1
T/C [11]: 123 % of control | T/C [12]: 106 % of control | T/C [13]: 117 % of control

Cc1nc(N)[nH]c(=O)c1CCCNc1cccc(C(F)(F)F)c1
T/C (dose: 100.0 mg/kg/injection, schedule: Q01DX001 (ip), vehicle: Klucel (hydroxypropylcellulose) (HPC)): 100 % of control | T/C (dose: 200.0 mg/kg/injection, schedule: Q01DX001 (ip), vehicle: Klucel (hydroxypropylcellulose) (HPC)): 104 % of control | T/C (dose: 400.0 mg/kg/injection, schedule: Q01DX001 (ip), vehicle: Klucel (hydroxypropylcellulose) (HPC)): 104 % of control

N#Cc1c(Cl)c(Cl)c(OC(=O)c2ccc(Cl)c(Cl)c2)c(Cl)c1Cl
T/C [11]: 117 % of control | T/C [12]: 108 % of control | T/C [13]: 94 % of control

COc1ccccc1C(=O)c1ccccc1Cc1cccc2ccccc12
T/C [11]: 92 % of control | T/C [12]: 92 % of control | T/C [13]: 92 % of control | T/C (dose: 400.0 mg/kg/injection, schedule: Q01DX009 (ip), vehicle: saline with Tween-80): 97 % of control
